Reference: ChEMBL document CHEMBL1201862, “PubChem BioAssay data set” (2004)
The source made the active and inactive calls.

Legend:
[1] = target: Dual specificity tyrosine-phosphorylation-regulated kinase 1A (Rattus norvegicus, UniProt Q63470); type: biochemical, Homo sapiens
Beta-galactosidase = Beta-galactosidase (Escherichia coli, UniProt Q8VNN2); assay: detection-enzyme interference by beta-gal modulators – biochemical, E. coli enzyme, set 3, artefact control for CCR6 antagonist project, dose response (AID 504712); type: functional
[2] = Intein inhibitors as potential Tuberculosis drugs, a cytotoxicity screen. [Related pubchem assays (depositor defined):AID2221, AID2223, AID434968, AID435010, AID449749, AID449750, AID489010]; type: functional
Nonstructural protein 1 = Nonstructural protein 1 (Influenza A virus, UniProt Q194T2); type: functional, Influenza A virus (A/California/07/2009(H1N1))
Vero = assay: viability of Vero cells under compound – cytotoxicity control for flavivirus capping enzyme inhibitors (AID 588742); type: functional; conditions: Chlorocebus sabaeus
[3] = HIV-1 AD8 envelope cell-cell fusion blockers – cherry-pick, dose response (AID 652062); type: functional, cell-based;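 note: luciferase signal from cell-cell fusion driven by HIV-1 clade B AD8 Env; potency is for inhibitors of fusion seen as a drop in luminescence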
INS1 = assay: INS-1E survival protection against cytokine death – cell-based, luminescence, retest, dose response (AID 449756); type: functional; conditions: Rattus norvegicus;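 note: cell death triggered by IL-1 beta plus TNF-alpha plus IFN-gamma mixture; protective hits raise ATP signal compared with cytokine alone wells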
[4] = blockers of HIV-1 envelope-mediated cell-cell fusion – cherry-pick, dose response (AID 652057); type: functional, cell-based
[5] = target: Mitochondrial peptide methionine sulfoxide reductase (Bos taurus, UniProt P54149); type: functional;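 note: absorbance read-out, biochemical high-throughput dose-response screen for MsrA inhibitors, confirmatory; recombinant bovine MsrA coupled to E. coli TrxB with NADPH and selenocystamine; potency is for inhibitors of MsrA activity on DMSO substrate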
Streptococcus = assay: GAS UMAA2166 growth inhibition – luminescence, BacTiterGlo, counter-screen for streptokinase expression inhibitor project, dose response (AID 1915); type: functional, organism-based;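 note: potency for reduction of bacterial viability or growth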
[6] = target: G protein-coupled receptor kinase 5 (Homo sapiens, UniProt P34947); assay: Navigating the Kinome. Panel member name: GPRK5; type: functional
[7] = target: Proto-oncogene tyrosine-protein kinase receptor Ret (Homo sapiens, UniProt P07949); type: functional;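 note: measured within a kinome-wide profiling panel, RET as the panel member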
[8] = target: Ribosomal protein S6 kinase alpha-3 (Homo sapiens, UniProt P51812); type: functional;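 note: measured within a kinome-wide profiling panel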
[9] = target: Platelet-derived growth factor receptor beta (Homo sapiens, UniProt P09619); type: functional;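 note: value comes from a kinome panel, with PDGFRB tested as one panel member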
[10] = target: Serine/threonine-protein kinase Nek2 (Homo sapiens, UniProt P51955); type: functional
[11] = target: T1, Histone-lysine N-methyltransferase NSD2 (Homo sapiens, UniProt O96028); type: biochemical
T1 sequence (O96028 whole entry): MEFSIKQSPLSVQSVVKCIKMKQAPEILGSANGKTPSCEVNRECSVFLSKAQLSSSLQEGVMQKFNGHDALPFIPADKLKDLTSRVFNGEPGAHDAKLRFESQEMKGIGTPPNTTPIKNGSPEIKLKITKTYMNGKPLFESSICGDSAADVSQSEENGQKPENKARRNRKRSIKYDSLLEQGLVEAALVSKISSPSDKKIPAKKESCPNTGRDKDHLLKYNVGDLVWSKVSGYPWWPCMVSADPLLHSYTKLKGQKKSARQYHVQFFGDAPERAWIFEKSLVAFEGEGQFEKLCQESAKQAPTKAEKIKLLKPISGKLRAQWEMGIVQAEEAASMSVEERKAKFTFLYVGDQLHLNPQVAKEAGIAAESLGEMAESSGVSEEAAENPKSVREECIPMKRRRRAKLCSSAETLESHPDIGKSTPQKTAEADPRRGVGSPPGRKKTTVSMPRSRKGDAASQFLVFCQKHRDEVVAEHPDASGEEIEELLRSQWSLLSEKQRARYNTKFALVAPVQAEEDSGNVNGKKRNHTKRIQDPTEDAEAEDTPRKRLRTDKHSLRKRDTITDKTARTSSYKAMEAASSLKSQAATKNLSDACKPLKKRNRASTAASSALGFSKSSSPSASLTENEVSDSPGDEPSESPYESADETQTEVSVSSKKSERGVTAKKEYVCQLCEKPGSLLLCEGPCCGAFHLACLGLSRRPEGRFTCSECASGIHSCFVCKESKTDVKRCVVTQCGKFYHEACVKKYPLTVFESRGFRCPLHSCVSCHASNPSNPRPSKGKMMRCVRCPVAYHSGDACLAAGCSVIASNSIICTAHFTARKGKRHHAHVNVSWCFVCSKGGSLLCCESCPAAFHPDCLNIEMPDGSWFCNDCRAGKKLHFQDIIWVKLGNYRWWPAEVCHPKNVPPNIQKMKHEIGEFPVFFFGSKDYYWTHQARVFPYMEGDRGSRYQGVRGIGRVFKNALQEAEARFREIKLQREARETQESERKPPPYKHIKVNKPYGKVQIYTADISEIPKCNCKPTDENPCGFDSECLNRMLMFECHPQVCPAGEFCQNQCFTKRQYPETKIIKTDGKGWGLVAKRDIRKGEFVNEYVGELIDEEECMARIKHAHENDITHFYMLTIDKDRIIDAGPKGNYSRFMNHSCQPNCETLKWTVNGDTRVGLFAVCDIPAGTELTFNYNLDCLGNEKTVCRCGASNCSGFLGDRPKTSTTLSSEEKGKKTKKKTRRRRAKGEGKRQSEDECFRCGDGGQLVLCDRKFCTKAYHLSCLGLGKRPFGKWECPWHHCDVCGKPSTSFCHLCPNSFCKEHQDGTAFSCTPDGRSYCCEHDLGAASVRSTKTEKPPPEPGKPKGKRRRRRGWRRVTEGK

BJ [12] = assay: BJ-TERT-LT-ST fibroblast viability loss – cell-based, RAS-independent, luminescence, dose response (AID 1935); type: functional; conditions: Homo sapiens;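 note: BJ fibroblasts immortalized with TERT plus LT and ST oncogenes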
[13] = DRD fibroblast viability loss – cell-based, non-viral oncogenic, luminescence, dose response (AID 1934); type: functional; conditions: Homo sapiens
[14] = M. tuberculosis H37Rv growth inhibitors, H37Rv strain (AID 1626); type: functional
BJ [15] = assay: cells; type: functional, cell-based; conditions: Homo sapiens

Chain of Proto-oncogene tyrosine-protein kinase receptor Ret (P07949 whole entry): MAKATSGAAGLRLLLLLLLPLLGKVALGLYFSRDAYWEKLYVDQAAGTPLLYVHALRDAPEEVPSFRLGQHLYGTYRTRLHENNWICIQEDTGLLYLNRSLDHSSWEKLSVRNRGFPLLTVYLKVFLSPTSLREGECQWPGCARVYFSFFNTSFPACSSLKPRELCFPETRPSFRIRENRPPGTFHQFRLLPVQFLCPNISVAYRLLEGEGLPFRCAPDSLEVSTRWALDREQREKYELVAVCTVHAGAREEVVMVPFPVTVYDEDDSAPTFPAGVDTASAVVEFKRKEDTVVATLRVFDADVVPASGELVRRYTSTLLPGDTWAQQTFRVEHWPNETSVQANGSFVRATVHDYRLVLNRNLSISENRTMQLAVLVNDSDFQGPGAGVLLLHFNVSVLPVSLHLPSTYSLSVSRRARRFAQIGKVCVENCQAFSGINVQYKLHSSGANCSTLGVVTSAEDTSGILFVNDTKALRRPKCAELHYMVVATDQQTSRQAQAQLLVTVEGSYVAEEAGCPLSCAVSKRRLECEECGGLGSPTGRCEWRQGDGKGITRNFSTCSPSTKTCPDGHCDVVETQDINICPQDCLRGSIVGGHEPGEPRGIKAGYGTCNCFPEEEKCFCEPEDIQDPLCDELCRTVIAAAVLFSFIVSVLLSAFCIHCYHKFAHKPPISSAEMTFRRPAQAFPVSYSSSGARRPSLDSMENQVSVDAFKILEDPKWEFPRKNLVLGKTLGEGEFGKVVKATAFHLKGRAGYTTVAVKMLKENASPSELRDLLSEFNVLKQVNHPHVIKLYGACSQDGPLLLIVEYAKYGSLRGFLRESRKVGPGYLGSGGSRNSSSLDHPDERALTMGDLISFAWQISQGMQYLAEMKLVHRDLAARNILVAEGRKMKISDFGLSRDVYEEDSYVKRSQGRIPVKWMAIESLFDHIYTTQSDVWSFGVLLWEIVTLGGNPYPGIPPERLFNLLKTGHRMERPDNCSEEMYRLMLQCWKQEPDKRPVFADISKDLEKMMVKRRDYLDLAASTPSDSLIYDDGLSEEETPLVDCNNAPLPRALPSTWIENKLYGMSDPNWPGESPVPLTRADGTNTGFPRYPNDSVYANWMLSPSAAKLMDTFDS
Chain of Platelet-derived growth factor receptor beta (P09619 whole entry): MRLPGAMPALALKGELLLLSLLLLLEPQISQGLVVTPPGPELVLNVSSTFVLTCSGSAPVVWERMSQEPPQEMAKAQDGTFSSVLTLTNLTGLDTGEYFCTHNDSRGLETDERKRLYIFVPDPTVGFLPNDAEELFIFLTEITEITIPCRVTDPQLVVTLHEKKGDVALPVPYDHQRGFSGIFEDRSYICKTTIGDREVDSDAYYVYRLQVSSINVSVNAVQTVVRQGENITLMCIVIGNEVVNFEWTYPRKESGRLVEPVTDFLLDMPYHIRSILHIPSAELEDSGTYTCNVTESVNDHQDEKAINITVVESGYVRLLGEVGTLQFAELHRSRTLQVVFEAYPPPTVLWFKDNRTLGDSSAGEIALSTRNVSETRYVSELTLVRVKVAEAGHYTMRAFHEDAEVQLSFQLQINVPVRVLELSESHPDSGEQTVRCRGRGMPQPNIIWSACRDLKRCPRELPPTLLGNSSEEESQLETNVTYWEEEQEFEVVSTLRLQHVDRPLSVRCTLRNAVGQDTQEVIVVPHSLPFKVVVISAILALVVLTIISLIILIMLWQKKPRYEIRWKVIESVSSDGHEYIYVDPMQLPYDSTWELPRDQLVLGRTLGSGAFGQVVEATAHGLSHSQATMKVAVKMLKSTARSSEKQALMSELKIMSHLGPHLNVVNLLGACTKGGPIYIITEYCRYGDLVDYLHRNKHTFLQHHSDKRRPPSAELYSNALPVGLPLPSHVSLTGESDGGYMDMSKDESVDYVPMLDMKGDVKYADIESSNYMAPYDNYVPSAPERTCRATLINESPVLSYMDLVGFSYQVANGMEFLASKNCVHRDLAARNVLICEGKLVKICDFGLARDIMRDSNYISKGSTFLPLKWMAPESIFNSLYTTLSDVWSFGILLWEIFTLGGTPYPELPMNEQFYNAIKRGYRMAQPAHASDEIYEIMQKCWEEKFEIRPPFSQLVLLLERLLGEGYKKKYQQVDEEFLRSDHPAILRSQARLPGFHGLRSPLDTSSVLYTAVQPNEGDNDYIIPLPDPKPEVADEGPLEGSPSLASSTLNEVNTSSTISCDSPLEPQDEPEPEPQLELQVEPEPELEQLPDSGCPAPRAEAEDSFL
Chain of G protein-coupled receptor kinase 5 (P34947 whole entry): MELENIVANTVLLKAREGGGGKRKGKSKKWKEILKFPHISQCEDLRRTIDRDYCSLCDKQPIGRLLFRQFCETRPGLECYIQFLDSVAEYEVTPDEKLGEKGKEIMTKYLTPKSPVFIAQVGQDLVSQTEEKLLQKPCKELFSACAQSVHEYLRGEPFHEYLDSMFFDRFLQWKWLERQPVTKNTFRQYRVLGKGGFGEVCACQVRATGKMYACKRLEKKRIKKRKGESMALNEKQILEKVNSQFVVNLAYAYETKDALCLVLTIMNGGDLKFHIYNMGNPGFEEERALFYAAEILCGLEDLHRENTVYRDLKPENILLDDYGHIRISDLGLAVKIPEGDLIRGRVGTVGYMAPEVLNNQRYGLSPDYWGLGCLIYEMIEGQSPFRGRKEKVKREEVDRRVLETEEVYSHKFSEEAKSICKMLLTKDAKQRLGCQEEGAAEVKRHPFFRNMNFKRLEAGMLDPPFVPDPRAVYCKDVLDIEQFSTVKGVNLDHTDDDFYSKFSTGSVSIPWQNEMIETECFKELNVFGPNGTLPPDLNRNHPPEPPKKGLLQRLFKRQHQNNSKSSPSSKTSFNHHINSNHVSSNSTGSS
Chain of Ribosomal protein S6 kinase alpha-3 (P51812 whole entry): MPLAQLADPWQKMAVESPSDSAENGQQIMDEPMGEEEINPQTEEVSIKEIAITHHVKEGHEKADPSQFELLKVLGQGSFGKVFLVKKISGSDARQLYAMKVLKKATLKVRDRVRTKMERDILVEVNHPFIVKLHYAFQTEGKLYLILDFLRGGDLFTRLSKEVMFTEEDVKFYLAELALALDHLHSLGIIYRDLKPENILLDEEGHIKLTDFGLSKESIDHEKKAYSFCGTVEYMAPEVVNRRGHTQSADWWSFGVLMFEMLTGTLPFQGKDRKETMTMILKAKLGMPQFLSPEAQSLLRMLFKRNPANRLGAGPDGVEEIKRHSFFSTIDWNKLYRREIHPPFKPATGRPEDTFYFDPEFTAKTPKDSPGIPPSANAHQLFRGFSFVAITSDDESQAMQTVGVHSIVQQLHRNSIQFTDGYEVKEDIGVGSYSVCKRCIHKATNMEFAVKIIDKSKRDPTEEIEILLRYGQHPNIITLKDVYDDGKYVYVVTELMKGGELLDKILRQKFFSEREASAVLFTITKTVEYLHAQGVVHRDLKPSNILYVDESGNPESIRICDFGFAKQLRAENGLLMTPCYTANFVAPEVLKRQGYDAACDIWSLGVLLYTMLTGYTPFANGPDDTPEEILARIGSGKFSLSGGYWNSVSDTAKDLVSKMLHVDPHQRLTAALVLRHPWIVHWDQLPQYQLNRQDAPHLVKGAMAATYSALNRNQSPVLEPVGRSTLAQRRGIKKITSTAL
Chain of Nonstructural protein 1 (Q194T2 whole entry): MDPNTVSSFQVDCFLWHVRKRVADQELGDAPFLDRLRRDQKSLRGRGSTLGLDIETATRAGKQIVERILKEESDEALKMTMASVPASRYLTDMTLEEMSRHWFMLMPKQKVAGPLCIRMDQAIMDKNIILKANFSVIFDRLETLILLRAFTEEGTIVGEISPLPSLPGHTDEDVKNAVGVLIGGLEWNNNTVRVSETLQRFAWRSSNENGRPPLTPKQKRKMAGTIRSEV
Chain of Mitochondrial peptide methionine sulfoxide reductase (P54149 whole entry): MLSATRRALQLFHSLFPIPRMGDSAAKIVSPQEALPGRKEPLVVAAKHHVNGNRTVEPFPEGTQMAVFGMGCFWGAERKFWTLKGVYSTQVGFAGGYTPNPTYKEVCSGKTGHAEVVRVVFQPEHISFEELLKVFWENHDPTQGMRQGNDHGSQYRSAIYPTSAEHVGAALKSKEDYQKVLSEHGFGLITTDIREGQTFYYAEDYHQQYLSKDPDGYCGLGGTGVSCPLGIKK
Chain of Beta-galactosidase (Q8VNN2 whole entry): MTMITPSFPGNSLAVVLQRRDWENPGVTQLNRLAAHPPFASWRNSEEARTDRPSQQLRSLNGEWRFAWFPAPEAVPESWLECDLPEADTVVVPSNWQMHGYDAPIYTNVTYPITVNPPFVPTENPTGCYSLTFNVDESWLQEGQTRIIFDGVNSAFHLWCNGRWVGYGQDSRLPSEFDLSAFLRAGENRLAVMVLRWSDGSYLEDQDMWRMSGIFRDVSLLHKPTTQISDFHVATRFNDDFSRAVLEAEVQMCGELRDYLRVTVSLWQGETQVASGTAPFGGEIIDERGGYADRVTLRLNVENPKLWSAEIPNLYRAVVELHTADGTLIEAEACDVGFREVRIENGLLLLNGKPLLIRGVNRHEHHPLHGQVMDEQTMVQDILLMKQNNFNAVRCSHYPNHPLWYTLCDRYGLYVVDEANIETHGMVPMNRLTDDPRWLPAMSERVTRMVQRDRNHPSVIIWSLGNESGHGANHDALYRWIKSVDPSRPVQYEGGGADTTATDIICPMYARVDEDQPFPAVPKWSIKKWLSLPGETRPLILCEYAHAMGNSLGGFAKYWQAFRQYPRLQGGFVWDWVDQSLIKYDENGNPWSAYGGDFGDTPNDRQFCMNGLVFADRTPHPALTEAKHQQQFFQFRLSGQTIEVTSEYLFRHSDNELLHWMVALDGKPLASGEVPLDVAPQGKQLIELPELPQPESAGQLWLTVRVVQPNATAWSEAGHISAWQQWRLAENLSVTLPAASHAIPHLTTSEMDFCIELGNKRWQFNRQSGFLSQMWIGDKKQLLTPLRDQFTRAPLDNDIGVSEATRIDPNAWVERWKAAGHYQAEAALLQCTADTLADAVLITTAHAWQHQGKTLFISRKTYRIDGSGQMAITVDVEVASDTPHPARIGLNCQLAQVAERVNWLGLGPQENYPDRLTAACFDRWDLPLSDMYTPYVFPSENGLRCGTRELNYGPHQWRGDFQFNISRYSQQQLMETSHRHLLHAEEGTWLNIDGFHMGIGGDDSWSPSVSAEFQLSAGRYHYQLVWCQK

| Structure (SMILES) | IC50 (Nonstructural protein 1) | CC50 (Vero) | AC50 (INS1) | Ki [6] | Ki [7] | Ki [8] | Ki [9] | AC50 [11] | also measured |
| --- | --- | --- | --- | --- | --- | --- | --- | --- | --- |
| Cc1cc(C)c(S(=O)(=O)/N=C2\C=C(Nc3ccc(C(=O)O)cc3)C(=O)c3ccccc32)c(C)c1 | 20.8 µM (active) | 9.71 µM (active) | 2.51 µM (active) |  |  |  |  |  | AC50 [1]: 1.8 µM (active); IC50 (Beta-galactosidase): 36.1 µM (active); CC50 [2]: 7.89 µM (active); AC50 [3]: 9.55 µM (active); AC50 [4]: 12.4 µM (active); IC50 [5]: 44.8 µM (inactive); EC50 (Streptococcus): 2.6 µM (active) |
| O=C(Nc1cccc(C(F)(F)F)n1)Nc1ccnc2cc(OC(F)F)ccc12 |  |  |  | > 3.98 µM (inactive) | > 3.16 µM (inactive) | > 3.98 µM (inactive) | > 2 µM (inactive) |  | Ki [10]: > 3.16 µM (inactive) |
| O=c1[nH]c2cc(Br)cnc2[nH]1 |  |  |  |  | 31.6 µM (active) | 31.6 µM (active) |  |  |  |
| O=C(Nc1cccc(C(F)(F)F)n1)Nc1ccnc2cc(Cl)ccc12 |  |  |  | > 3.98 µM (inactive) |  |  | > 2 µM (inactive) |  |  |
| O=C(Cc1ccccc1)NC1(O)C(=O)c2ccccc2C1=O |  |  |  |  |  |  |  | 7.11 µM (active) |  |
| COC(=O)c1nc(-c2ccc3c(n2)C(=O)C(=N)C(OC)=C3O)c(N)c(-c2ccc(OC)c(OC)c2O)c1C | > 100 µM (active) | 0.18 µM (active) | 1.56 µM (active) |  |  |  |  | > 20 µM (inactive) | EC50 (BJ [12]): 10.3 µM (active); EC50 [13]: 13.9 µM (active); IC50 [14]: > 100 µM (active); EC50 (BJ [15]): 4.56 µM (active) |
